Test results taken from PubChem BioAssay (NCI).
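Exposure lasted 48 hours, with cells grown in 96-well plates and compounds tested at five concentrations. GI50 is the concentration that inhibits growth by half. At the TGI there is no net growth.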

Legend:
Experiment in all cases: NCI tumour cell line growth inhibition, 48 h
A549 NSCLC = system: A549 NSCLC
CAKI-1 renal = system: CAKI-1 renal
CCRF-CEM leukemia = system: CCRF-CEM leukemia
HCC-2998 colon = system: HCC-2998 colon
HOP-62 NSCLC = system: HOP-62 NSCLC
SF-268 CNS = system: SF-268 CNS
SF-539 CNS = system: SF-539 CNS
SK-MEL-28 melanoma = system: SK-MEL-28 melanoma
SK-MEL-5 melanoma = system: SK-MEL-5 melanoma
SN12C renal = system: SN12C renal
UACC-257 melanoma = system: UACC-257 melanoma
UACC-62 melanoma = system: UACC-62 melanoma
UO-31 renal = system: UO-31 renal
IGROV1 ovarian = system: IGROV1 ovarian
MDA-MB-231 breast = system: MDA-MB-231 breast
PC-3 prostate = system: PC-3 prostate
MDA-N = system: MDA-N

Row | Compound | TGI (A549 NSCLC) | TGI (CAKI-1 renal) | TGI (CCRF-CEM leukemia) | TGI (HCC-2998 colon) | TGI (HOP-62 NSCLC) | TGI (SF-268 CNS) | TGI (SF-539 CNS) | TGI (SK-MEL-28 melanoma) | TGI (SK-MEL-5 melanoma) | TGI (SN12C renal) | TGI (UACC-257 melanoma) | TGI (UACC-62 melanoma) | TGI (UO-31 renal) | TGI (IGROV1 ovarian) | TGI (MDA-MB-231 breast) | TGI (PC-3 prostate) | TGI (MDA-N) | GI50 (A549 NSCLC) | GI50 (SK-MEL-28 melanoma) | GI50 (UO-31 renal)
1 | CCOc1ccc(N(CC(=O)N2CC(=O)Nc3cc(C)c(C)cc32)C(C)=O)cc1 | > 100 µM | > 100 µM | > 100 µM | > 100 µM | > 100 µM | > 100 µM | > 100 µM | > 100 µM | > 100 µM | > 100 µM | > 100 µM | > 100 µM | > 100 µM | – | – | – | – | – | – | –
2 | O=S(Cc1ccccc1)c1ccccc1Cn1cccc1 (stereo unspecified) | > 100 µM | > 100 µM | > 100 µM | > 100 µM | > 100 µM | > 100 µM | > 100 µM | > 100 µM | > 100 µM | > 100 µM | > 100 µM | > 100 µM | > 100 µM | > 100 µM | > 100 µM | > 100 µM | – | – | – | –
3 | COc1cc(C2c3cc4c(cc3OC(NNC(N)=S)C2C)OCO4)cc(OC)c1OC (stereo unspecified) | > 100 µM | 36.3 µM | – | 18.7 µM | > 100 µM | > 100 µM | 0.523 µM | > 100 µM | – | > 100 µM | > 92.7 µM | > 100 µM | 60.1 µM | > 100 µM | 8.68 µM | – | > 100 µM | – | – | –
4 | COc1ccc(OC2(c3cc(OC)ccc3OC)OC(=O)c3ccccc32)cc1 (stereo unspecified) | > 100 µM | > 100 µM | > 100 µM | > 100 µM | > 100 µM | > 100 µM | > 100 µM | > 100 µM | > 100 µM | > 100 µM | > 100 µM | > 100 µM | > 100 µM | > 100 µM | – | – | – | – | – | –
5 | COc1cccc(C2=NC(C(C)C)CO2)c1OC (stereo unspecified) | > 100 µM | > 100 µM | > 100 µM | > 100 µM | > 100 µM | > 100 µM | > 100 µM | > 100 µM | > 100 µM | > 100 µM | > 100 µM | > 100 µM | > 100 µM | > 100 µM | – | – | – | – | – | –
6 | N#C/C(c1nc2ccccc2[nH]1)=c1\s/c(=C/c2ccccc2)c(=O)n1-c1ccccc1 | > 100 µM | > 100 µM | > 100 µM | > 100 µM | > 100 µM | > 100 µM | > 100 µM | > 100 µM | > 100 µM | > 100 µM | > 100 µM | > 100 µM | > 100 µM | > 100 µM | – | – | – | – | – | –
7 | CC1(O)CC2C(CC1SC1CC3C(CC1(C)O)C3(C)C)C2(C)C (stereo unspecified) | > 100 µM | – | 95.9 µM | > 100 µM | – | > 100 µM | > 100 µM | > 100 µM | 59.7 µM | > 100 µM | > 100 µM | – | > 100 µM | > 100 µM | – | – | – | – | – | –
8 | COc1cc2c(c(OC)c1OC)-c1ccc(SC)c(=O)cc1[C@@H](NC(=O)c1cccc([N+](=O)[O-])c1)CC2 | 23.1 µM | – | > 100 µM | 0.0497 µM | 14.9 µM | 16.5 µM | 0.0377 µM | 82.3 µM | 0.0467 µM | 21.6 µM | 33.9 µM | 36.4 µM | > 100 µM | 35.6 µM | – | – | – | 0.033 µM | 10.5 µM | 0.0276 µM
9 | O=C1C(Cl)C(c2ccccc2Cl)N1n1cnc2ccccc2c1=O (stereo unspecified) | > 100 µM | > 100 µM | > 100 µM | > 100 µM | > 100 µM | > 100 µM | – | > 100 µM | > 100 µM | > 100 µM | > 100 µM | > 100 µM | 73.2 µM | > 100 µM | – | – | – | – | – | –
10 | CCOC(=O)C1CCCc2sc(N)c(C#N)c21 (stereo unspecified) | > 100 µM | – | – | > 100 µM | > 100 µM | – | – | > 100 µM | > 100 µM | > 100 µM | > 100 µM | > 100 µM | > 100 µM | > 100 µM | > 100 µM | > 100 µM | > 100 µM | – | – | –
11 | CCOC(=O)c1c(CN2CCNCC2)nc2ccc(Cl)cc2c1-c1ccccc1 | 17.7 µM | 8.11 µM | 8.21 µM | 3 µM | 21.6 µM | 17.9 µM | 7.56 µM | 7.04 µM | 2.16 µM | 15 µM | 3.62 µM | 3.76 µM | 9.69 µM | 17.1 µM | – | 12.4 µM | – | – | – | –
12 | CCc1cccc(C(C)C)c1NC(=O)/C(=N\NC(N)=O)C(C(=O)OC)c1cnc2ccccc2n1 (stereo unspecified) | 76.5 µM | > 100 µM | > 100 µM | > 100 µM | > 100 µM | > 100 µM | > 100 µM | > 100 µM | 35.1 µM | > 100 µM | 94.4 µM | 62.7 µM | > 100 µM | > 100 µM | – | – | – | – | – | –
13 | Cc1cc(N(CCC#N)CCC#N)ccc1/C=C1N=C(/C=C\c2ccccc2)N(NC(=O)CC(=O)Nc2ccccc2Cl)C\1=O | > 100 µM | > 100 µM | > 100 µM | – | > 100 µM | > 100 µM | > 100 µM | > 100 µM | > 100 µM | > 100 µM | > 100 µM | > 100 µM | > 100 µM | > 100 µM | – | – | – | – | – | –
14 | CCOC(=O)C(C)NC(=O)NC12CC3CC(CC(F)(C3)C1)C2 (stereo unspecified) | > 100 µM | – | > 100 µM | > 100 µM | > 100 µM | – | > 100 µM | > 100 µM | > 100 µM | – | > 100 µM | > 100 µM | > 100 µM | > 100 µM | – | – | – | – | – | –
15 | CC(C)N(C(=O)C12C3C4C5C3C1(C(=O)O)C5C42)C(C)C (stereo unspecified) | > 100 µM | > 100 µM | > 100 µM | > 100 µM | > 100 µM | > 100 µM | > 100 µM | > 100 µM | > 100 µM | > 100 µM | > 100 µM | > 100 µM | > 100 µM | > 100 µM | – | – | – | – | – | –
16 | Oc1ccc(Br)cc1C=Nc1c(NC2CCCCC2)oc2ccc(Br)cc12 | > 100 µM | > 100 µM | 20.2 µM | > 100 µM | > 100 µM | > 100 µM | > 100 µM | > 100 µM | > 100 µM | > 100 µM | > 100 µM | > 100 µM | > 100 µM | > 100 µM | > 100 µM | – | > 100 µM | – | – | –
17 | COc1cc([C@@H]2c3cc4c(cc3[C@@H](NCc3ccccc3F)C3COC(=O)[C@@H]32)OCO4)cc(OC)c1O (stereo partly specified) | 15.1 µM | 44.2 µM | > 100 µM | 28.3 µM | 7.74 µM | > 100 µM | 16.2 µM | 46.6 µM | 7.86 µM | 8.08 µM | 37.2 µM | 4.43 µM | 17.3 µM | 20.5 µM | – | – | – | – | – | –
18 | COc1ccc2c(=O)c3ccoc3[nH]c2c1 | – | > 100 µM | > 100 µM | > 100 µM | > 100 µM | > 100 µM | > 100 µM | > 100 µM | > 100 µM | – | > 100 µM | > 100 µM | > 100 µM | > 100 µM | > 100 µM | > 100 µM | – | – | – | –
19 | NC(=O)N/N=C(\CC1OC(=O)c2ccccc21)c1ccc([N+](=O)[O-])cc1 (stereo unspecified) | > 100 µM | 71.3 µM | > 100 µM | 32.7 µM | 53.6 µM | – | 55 µM | – | 47.2 µM | > 100 µM | > 100 µM | 34.8 µM | > 100 µM | 49.8 µM | – | – | – | – | – | –
20 | CC(=O)NC(CCCCNCc1ccccc1)C(=O)NCc1ccccc1 (stereo unspecified) | > 100 µM | > 100 µM | > 100 µM | > 100 µM | > 100 µM | > 100 µM | > 100 µM | > 100 µM | > 100 µM | > 100 µM | > 100 µM | > 100 µM | > 100 µM | > 100 µM | – | – | – | – | – | –
21 | CCN(CC)CCCNc1ccc([N+](=O)[O-])c2nc3ccccc3c(N)c12 | 2.11 µM | > 10 µM | 2.91 µM | – | > 10 µM | > 10 µM | 1.88 µM | > 10 µM | 1.53 µM | > 10 µM | > 10 µM | > 10 µM | > 10 µM | 2.6 µM | 2.09 µM | 2.25 µM | – | – | – | –
22 | Cc1[nH]c2ncn3[nH]c(=S)nc3c2c1Cc1ccccc1 | > 100 µM | > 100 µM | > 100 µM | > 100 µM | > 100 µM | > 100 µM | > 100 µM | > 100 µM | > 100 µM | > 100 µM | > 100 µM | > 100 µM | > 100 µM | > 100 µM | > 100 µM | > 100 µM | – | – | – | –
23 | O=C(O)CCC(NC(=O)c1ccc(Oc2nc3ccccc3nc2C(=O)O)cc1)C(=O)O (stereo unspecified) | > 100 µM | > 100 µM | > 100 µM | > 100 µM | > 100 µM | > 100 µM | – | > 100 µM | > 100 µM | – | > 100 µM | > 100 µM | > 100 µM | > 100 µM | > 100 µM | > 100 µM | – | – | – | –
24 | COC(=O)C(Cc1nc2ccc(Cl)cc2[nH]c1=O)C(=O)C(=O)Nc1cc(C)ccc1C (stereo unspecified) | > 100 µM | > 100 µM | > 100 µM | > 100 µM | > 100 µM | > 100 µM | > 100 µM | > 100 µM | > 100 µM | > 100 µM | > 100 µM | > 100 µM | > 100 µM | > 100 µM | – | – | – | – | – | –
25 | N#CC(NNC(=O)Cc1ccccc1)c1ccc([N+](=O)[O-])cc1 (stereo unspecified) | > 100 µM | – | > 100 µM | – | > 100 µM | > 100 µM | > 100 µM | > 100 µM | > 100 µM | > 100 µM | > 100 µM | > 100 µM | > 100 µM | > 100 µM | – | – | – | – | – | –
